Laboratory results reported in US5721213A, “Peptides, active as inhibitors of platelet aggregation” (Nippon Steel Corporation, priority 1993, dated 1998).
Non-standard residues stand in square brackets, D forms with d. Residues, ends and D or L forms follow the SMILES beside them. Sar = CNCC(=O)O

Columns and labels:
platelet aggregation = conditions: times as strong as RGDS; cited from earlier work
mouse = experiment: acute toxicity test; assay type: in vivo; conditions: intravenously injected, 100 mg/Kg
[1] = tested on: platelets activated by ADP; conditions: 400 μM; cited from earlier work

Compound: arginine-glycine-aspartic acid-phenylalanine [RGDF]
- platelet aggregation-inhibiting activity relative to RGDS (platelet aggregation): 4-5 times

Compound: C[C@H](NC(=O)[C@H](CO)NC(=O)[C@@H]1CCCN1)C(=O)N(C)CC(=O)N[C@@H](CC(=O)O)C(=O)N[C@@H](Cc1c[nH]c2ccccc12)C(=O)O [Example 1, Pro-Ser-Ala-Sar-Asp-Trp-OH] (H-PSA[Sar]DW-OH)
- acute toxicity (mouse): no toxicity was observed

Compound: glycine-arginine-glycine-aspartic acid-serine-proline [GRGDSP]
- inhibition of aggregation of platelets activated by ADP [1]: completely inhibited
